# According to US9535067B2, “DOT1L probes” (DANA-FARBER CANCER INSTITUTE, INC., priority 2013, dated 2017):
# Molecular target: DOT1L (Homo sapiens, UniProt Q8TEK3)
# Assay: Differential Scanning Fluorimetry (DFS) Assay
# Type: binding
# Excerpt: DFS enables assays suitable for high throughput screening assays for the effect of a small molecule on protein stability. DFS assays measures the thermal stability of a target protein and a subsequent increase in protein melting temperature upon binding of a ligand to the protein. Generally, specific binding will stabilize the protein. An exemplary protocol for performing a DFS for detecting the binding of (with or without a test compound) a fluorescence labeled probe to DOT1L, or an analog thereof, is as follows.
# First, a protein solution comprising DOT1L or an active fragment thereof (e.g., DOT1L SET domain) is prepared in a suitable buffer at a desired concentration (e.g., 0.1 μM. 0.5 μM, 1.0 μM, 2.5 μM, 5.0 μM, 10 μM, 20 μM, or 100 μM). Then, a probe solution comprising a compound of formula (I), (le), (If) or (Ig) is prepared. A volume of the protein solution is combined with a volume of the probe solution in the presence or absence of a test compound. Binding of the probe to DOT1L or an active fragment thereof is then measured using a fluorometer.
# Sequence of DOT1L (Q8TEK3 whole entry, species assumed): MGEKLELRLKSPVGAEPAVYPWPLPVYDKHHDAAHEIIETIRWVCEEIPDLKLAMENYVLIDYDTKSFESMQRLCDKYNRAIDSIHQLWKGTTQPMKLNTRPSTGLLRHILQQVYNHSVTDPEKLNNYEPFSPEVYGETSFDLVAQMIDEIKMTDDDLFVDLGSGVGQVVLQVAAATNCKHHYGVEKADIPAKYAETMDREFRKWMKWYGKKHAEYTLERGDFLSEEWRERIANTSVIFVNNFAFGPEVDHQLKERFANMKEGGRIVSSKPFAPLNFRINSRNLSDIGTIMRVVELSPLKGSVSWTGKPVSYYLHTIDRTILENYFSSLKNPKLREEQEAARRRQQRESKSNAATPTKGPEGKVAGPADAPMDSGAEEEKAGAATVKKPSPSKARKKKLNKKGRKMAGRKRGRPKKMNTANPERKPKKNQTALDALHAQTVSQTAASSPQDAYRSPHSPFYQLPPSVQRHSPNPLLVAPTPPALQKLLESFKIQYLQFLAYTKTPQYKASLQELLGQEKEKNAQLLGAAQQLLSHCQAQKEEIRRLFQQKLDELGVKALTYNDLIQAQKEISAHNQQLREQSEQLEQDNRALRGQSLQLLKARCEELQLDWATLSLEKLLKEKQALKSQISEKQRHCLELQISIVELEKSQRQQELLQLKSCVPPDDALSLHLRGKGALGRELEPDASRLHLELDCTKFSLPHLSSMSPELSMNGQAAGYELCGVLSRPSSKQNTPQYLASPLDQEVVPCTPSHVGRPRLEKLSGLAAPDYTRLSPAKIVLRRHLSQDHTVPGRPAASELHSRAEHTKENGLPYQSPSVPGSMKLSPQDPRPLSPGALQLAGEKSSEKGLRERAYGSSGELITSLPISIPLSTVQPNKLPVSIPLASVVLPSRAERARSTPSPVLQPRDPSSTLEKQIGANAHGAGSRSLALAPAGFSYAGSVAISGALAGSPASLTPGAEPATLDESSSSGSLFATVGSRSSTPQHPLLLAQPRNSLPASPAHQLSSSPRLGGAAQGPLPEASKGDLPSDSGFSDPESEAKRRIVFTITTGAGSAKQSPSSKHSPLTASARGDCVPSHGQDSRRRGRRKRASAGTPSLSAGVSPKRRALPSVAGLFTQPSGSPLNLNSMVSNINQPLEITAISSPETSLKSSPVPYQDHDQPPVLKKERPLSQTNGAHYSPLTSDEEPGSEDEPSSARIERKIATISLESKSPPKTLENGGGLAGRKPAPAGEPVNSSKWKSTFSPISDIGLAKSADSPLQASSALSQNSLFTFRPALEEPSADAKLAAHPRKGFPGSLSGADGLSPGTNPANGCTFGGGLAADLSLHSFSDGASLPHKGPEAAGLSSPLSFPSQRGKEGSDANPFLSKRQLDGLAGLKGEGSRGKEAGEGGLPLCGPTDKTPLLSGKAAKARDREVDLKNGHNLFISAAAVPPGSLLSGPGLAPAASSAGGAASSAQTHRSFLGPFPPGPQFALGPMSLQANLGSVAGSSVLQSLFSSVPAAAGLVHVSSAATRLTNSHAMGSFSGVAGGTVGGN
structure (smiles),measurement,value
CC(C)N(CCCNC(=O)Nc1ccc(C(C)(C)C)cc1)C[C@H]1O[C@@H](n2cnc3c(NCCCC(=O)NCCCOCCOCCOCCCNC(=O)CCCC[C@@H]4SC[C@@H]5NC(=O)N[C@@H]54)ncnc32)[C@H](O)[C@@H]1O [JQPROB2B],"binding effect / binding affinity against DOT1L (thermal stabilisation, FIG. 1)",reasonable binding affinity
